Source: patent publication US7601716B2, “Pyridopyrazines and derivatives thereof as ALK and c-Met inhibitors” (Cephalon, Inc., priority 2006, dated 2009)

Legend:
[1] = target: baculovirus-expressed ALK (Homo sapiens, UniProt Q9UM73); test: ALK Kinase Assay (ELISA/TRF, PLC-γ substrate); assay type: biochemical; conditions: read-out: ALK Kinase Inhibition (IC50); note: 1 µM ATP (Km level)
How it was run: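 Read-out: TRF of europium-labeled anti-phosphotyrosine antibody bound to phosphorylated GST–PLC-γ coated at 10 μg/mL. Kinase step used 30 ng/ml ALK, 37° C, 15 minutes. IC50 values fitted by nonlinear sigmoidal dose-response (variable slope).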

[2] = target: T1, c-Met (cytoplasmic domain) (Homo sapiens, UniProt P08581); test: c-Met Kinase Assay (ELISA/TRF, PLC-γ substrate); assay type: biochemical; conditions: 3 μM ATP (Km level); read-out: c-Met Kinase Inhibition (IC50)
T1 construct: Reactions were initiated with 30 ng/mL c-Met (cytoplasmic domain, Invitrogen Corporation #PV3143); purchased Invitrogen Corporation PV3143
How it was run: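 Readout is TRF of europium anti-phosphotyrosine (PT66) bound to GST–PLC-γ substrate coated at 10 μg/mL, after a 15 min, 37 °C reaction started with 30 ng/mL c-Met cytoplasmic domain. Percent inhibition plotted against log compound concentration and fitted (variable slope) for IC50.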

T1 sequence (P08581 956-1390 limits assumed): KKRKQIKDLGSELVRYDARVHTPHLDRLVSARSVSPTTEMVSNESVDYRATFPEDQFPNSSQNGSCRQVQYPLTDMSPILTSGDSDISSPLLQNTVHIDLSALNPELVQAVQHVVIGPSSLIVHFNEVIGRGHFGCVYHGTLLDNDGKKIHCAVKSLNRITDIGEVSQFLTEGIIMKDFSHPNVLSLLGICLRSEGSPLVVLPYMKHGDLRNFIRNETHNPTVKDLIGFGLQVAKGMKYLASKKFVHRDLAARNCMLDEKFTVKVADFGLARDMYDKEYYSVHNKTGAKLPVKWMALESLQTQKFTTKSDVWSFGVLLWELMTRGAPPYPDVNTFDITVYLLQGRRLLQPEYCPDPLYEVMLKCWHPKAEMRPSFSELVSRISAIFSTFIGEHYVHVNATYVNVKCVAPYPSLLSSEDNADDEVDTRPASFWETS
baculovirus-expressed ALK, sequence (Q9UM73 19-1620): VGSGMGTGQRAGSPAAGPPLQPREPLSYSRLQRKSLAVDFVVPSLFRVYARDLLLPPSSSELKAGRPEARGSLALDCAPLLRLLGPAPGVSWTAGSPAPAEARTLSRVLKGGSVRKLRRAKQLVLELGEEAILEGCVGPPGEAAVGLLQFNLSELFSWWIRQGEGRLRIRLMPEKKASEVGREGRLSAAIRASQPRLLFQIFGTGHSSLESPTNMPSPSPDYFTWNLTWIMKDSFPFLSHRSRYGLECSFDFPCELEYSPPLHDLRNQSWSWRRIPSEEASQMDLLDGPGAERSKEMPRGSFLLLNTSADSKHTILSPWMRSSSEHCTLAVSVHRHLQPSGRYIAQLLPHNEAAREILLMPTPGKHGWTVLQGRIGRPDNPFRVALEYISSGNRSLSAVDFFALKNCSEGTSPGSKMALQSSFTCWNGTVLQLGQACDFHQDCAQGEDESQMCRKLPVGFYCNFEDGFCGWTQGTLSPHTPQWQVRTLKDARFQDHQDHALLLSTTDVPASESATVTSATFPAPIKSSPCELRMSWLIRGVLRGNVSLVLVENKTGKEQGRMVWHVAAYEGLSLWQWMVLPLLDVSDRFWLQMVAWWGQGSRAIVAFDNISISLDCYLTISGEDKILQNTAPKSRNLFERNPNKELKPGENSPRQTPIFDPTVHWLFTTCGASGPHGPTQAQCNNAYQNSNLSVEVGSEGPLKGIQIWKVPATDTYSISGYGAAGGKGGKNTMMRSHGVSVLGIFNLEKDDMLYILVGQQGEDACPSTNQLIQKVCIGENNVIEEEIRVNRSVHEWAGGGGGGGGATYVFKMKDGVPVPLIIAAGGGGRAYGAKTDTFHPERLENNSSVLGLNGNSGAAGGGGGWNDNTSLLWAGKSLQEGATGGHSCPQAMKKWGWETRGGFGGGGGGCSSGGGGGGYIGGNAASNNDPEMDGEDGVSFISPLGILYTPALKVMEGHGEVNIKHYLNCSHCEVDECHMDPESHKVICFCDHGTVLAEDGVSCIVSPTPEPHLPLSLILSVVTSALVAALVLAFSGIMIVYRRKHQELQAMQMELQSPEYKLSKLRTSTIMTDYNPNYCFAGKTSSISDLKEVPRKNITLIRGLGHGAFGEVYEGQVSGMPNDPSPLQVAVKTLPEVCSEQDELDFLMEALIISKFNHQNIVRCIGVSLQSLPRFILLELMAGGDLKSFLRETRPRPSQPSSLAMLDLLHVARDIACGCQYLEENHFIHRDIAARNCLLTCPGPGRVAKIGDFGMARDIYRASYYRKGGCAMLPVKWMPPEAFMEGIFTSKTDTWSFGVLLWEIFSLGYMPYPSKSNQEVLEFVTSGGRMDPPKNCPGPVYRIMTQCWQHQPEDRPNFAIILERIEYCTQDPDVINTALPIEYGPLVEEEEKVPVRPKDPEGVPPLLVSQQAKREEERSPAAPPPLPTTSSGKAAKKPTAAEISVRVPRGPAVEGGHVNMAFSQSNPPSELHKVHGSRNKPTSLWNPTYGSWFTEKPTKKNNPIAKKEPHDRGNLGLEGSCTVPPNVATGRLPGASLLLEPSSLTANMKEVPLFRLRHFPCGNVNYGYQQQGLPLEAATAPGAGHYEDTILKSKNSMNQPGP

| SMILES | melting point [°C] | IC50 [1] [µM] | IC50 [2] [µM] |
| --- | --- | --- | --- |
| Clc1cccc(Cl)c1CN1CCNc2ncc(I)cc21 [Example 162, 1-(2,6-Dichlorobenzyl)-7-iodo-1,2,3,4-tetrahydropyrido[2,3-b]pyrazine] | > 200 | 1 to 10 | 10 to 100 |
| Clc1ccc(Cl)c(CN2CCNc3ncc(-c4ccc(Cl)nc4)cc32)c1 [Example 165, 7-(6-Chloropyridin-3-yl)-1-(2,5-dichlorobenzyl)-1,2,3,4-tetrahydropyrido[2,3-b]pyrazine] | 205 | 0.1 to 1 | > 100 |
| Clc1ccc(Cl)c(CN2CCNc3ncc(-c4ccc(N5CCCC5)nc4)cc32)c1 [Example 166, 1-(2,5-Dichlorobenzyl)-7-(6-pyrrolidin-1-yl-pyridin-3-yl)-1,2,3,4-tetrahydropyrido[2,3-b]pyrazine] | > 200 | 0.1 to 1 | > 100 |
| Clc1cc(-c2cnc3c(c2)N(Cc2c(Cl)cccc2Cl)CCN3)ccn1 [Example 167, 7-(2-Chloropyridin-4-yl)-1-(2,6-dichlorobenzyl)-1,2,3,4-tetrahydropyrido[2,3-b]pyrazine] | 194 | 0.1 to 1 | 10 to 100 |
| NCC#Cc1cnc2c(c1)N(Cc1cc(Cl)ccc1Cl)CCN2 [Example 169, 3-[1-(2,5-Dichlorobenzyl)-1,2,3,4-tetrahydropyrido[2,3-b]pyrazin-7-yl]prop-2-ynylamine] | 183 | 0.1 to 1 | 10 to 100 |
| CN(C)CC(=O)NCC#Cc1cnc2c(c1)N(Cc1c(Cl)cccc1Cl)CCN2 [Example 172, N-{3-[1-(2,6-Dichlorobenzyl)-1,2,3,4-tetrahydropyrido[2,3-b]pyrazin-7-yl]prop-2-ynyl}-2-dimethylamino-acetamide] | > 200 | 0.1 to 1 | 10 to 100 |
| CN(C)CC#Cc1cnc2c(c1)N(Cc1cc(Cl)ccc1Cl)CCN2 [Example 173, {3-[1-(2,5-Dichlorobenzyl)-1,2,3,4-tetrahydropyrido[2,3-b]pyrazin-7-yl]prop-2-ynyl}-dimethylamine] | 168 | 1 to 10 | 1 to 10 |
| O=S1(=O)CCN(CC#Cc2cnc3c(c2)N(Cc2cc(Cl)ccc2Cl)CCN3)CC1 [Example 174, 1-(2,5-Dichlorobenzyl)-7-[3-(1,1-dioxo-1λ^6-thiomorpholin-4-yl)prop-1-ynyl]-1,2,3,4-tetrahydropyrido[2,3-b]pyrazine] | > 200 | 0.1 to 1 | 10 to 100 |
| CC(c1c(F)ccc(F)c1Cl)N1CCNc2ncc(I)cc21 (stereo not drawn) [Example 176, 1-[1-(2-Chloro-3,6-difluorophenyl)ethyl]-7-iodo-1,2,3,4-tetrahydropyrido[2,3-b]pyrazine] | 166 | 1 to 10 | 10 to 100 |
| O=C1CNc2ncc(I)cc2N1Cc1cccc(F)c1C(F)(F)F [Example 178, 1-[3-Fluoro-2-(trifluoromethyl)benzyl]-7-iodo-3,4-dihydro-1H-pyrido[2,3-b]pyrazin-2-one] | > 200 | > 100 | 10 to 100 |
| CC(C)CCn1cc(-c2cnc3c(c2)N(Cc2c(F)ccc(F)c2Cl)CCN3)cn1 [Example 191, 1-(2-Chloro-3,6-difluorobenzyl)-7-[1-(3-methylbutyl)-1H-pyrazol-4-yl]-1,2,3,4-tetrahydropyrido[2,3-b]pyrazine] | 134 | 0.1 to 1 | 0.1 to 1 |
| Fc1ccc(F)c(CN2CCNc3ncc(-c4cn[nH]c4)cc32)c1Cl [Example 192, 1-(2-Chloro-3,6-difluorobenzyl)-7-(1H-pyrazol-4-yl)-1,2,3,4-tetrahydropyrido[2,3-b]pyrazine] | 272 | < 0.1 | 0.1 to 1 |
| CCOC(=O)c1ccc(-c2cnc3c(c2)N(Cc2cc(Cl)ccc2C(F)(F)F)CCN3)cc1 [Example 193, 4-{1-[5-Chloro-2-(trifluoromethyl)benzyl]-1,2,3,4-tetrahydropyrido[2,3-b]pyrazin-7-yl}benzoic acid ethyl ester] | 154 | > 100 | > 100 |
| CCOC(=O)c1cccc(-c2cnc3c(c2)N(Cc2cc(Cl)ccc2C(F)(F)F)CCN3)c1 [Example 194, 3-{1-[5-Chloro-2-(trifluoromethyl)benzyl]-1,2,3,4-tetrahydropyrido[2,3-b]pyrazin-7-yl}benzoic acid ethyl ester] | 174 | 0.1 to 1 | > 100 |
| Cn1cc(-c2cnc3c(c2)N(Cc2cc(Cl)ccc2C(F)(F)F)CCN3)cn1 [Example 203, 1-[5-Chloro-2-(trifluoromethyl)benzyl]-7-(1-methyl-1H-pyrazol-4-yl)-1,2,3,4-tetrahydropyrido[2,3-b]pyrazine] | 156 | 0.1 to 1 | 1 to 10 |
| O=C(c1ccc(-c2cnc3c(c2)N(Cc2cc(Cl)ccc2C(F)(F)F)CCN3)cc1)N1CCCCC1 [Example 204] | 216 | 0.1 to 1 | 10 to 100 |
| O=C(O)CCNc1cccc(Br)n1 [Example 265, 3-(6-bromo-pyridin-2-ylamino)propionic acid] | 108 to 109 | > 100 | > 100 |
| O=C1CCNc2nc(Br)ccc21 [Example 266, 7-bromo-2,3-dihydro-1H-[1,8]naphthyridin-4-one] | 196 to 197 | > 100 | > 100 |
| OC1CCNc2nc(Br)ccc21 (stereo not drawn) [Example 267, 7-bromo-1,2,3,4-tetrahydro-[1,8]naphthyridin-4-ol] | 130 to 131 | 10 to 100 | > 100 |
| OC1CCNc2ncc(Br)cc21 (stereo not drawn) [Example 268, 6-bromo-1,2,3,4-tetrahydro-[1,8]naphthyridin-4-ol] | 125 to 128 | > 100 | > 100 |
| CN1CCN(c2ccc(-c3cnc4c(c3)C(O)CCN4)cn2)CC1 (stereo not drawn) [Example 269, 6-[6-(4-Methyl-piperazin-1-yl)pyridin-3-yl]-1,2,3,4-tetrahydro-[1,8]naphthyridin-4-ol] | 124 to 128 | > 100 | 10 to 100 |
| Clc1cccc(OC2CCNc3ncc(-c4ccc(N5CCOCC5)cc4)cc32)c1 (stereo not drawn) [Example 280, 4-(3-Chlorophenoxy)-6-(4-morpholin-4-yl-phenyl)-1,2,3,4-tetrahydro-[1,8]naphthyridine] | 124 to 126 | 1 to 10 | 10 to 100 |
| Fc1ccc(F)c(/C=C2/CCNc3nc(Br)ccc32)c1 [Example 283, 7-Bromo-4-[1-(2,5-difluorophenyl)methylidene]-1,2,3,4-tetrahydro-[1,8]naphthyridine] | 178 to 179 | > 100 | > 100 |
| O=C(c1ccc(-c2cnc3c(c2)N(Cc2cc(Cl)ccc2C(F)(F)F)CCN3)cc1)N1CCN(c2nccs2)CC1 [Example 288, (4-{1-[5-Chloro-2-(trifluoromethyl)benzyl]-1,2,3,4-tetrahydropyrido[2,3-b]pyrazin-7-yl}phenyl)-(4-thiazol-2-yl-piperazin-1-yl)methanone] | 243 to 244 | 0.1 to 1 | 10 to 100 |
